Laboratory results reported in paper PMC6277767, “Broad and Region-Specific Impacts of the Synthetic Cannabinoid CP 55,940 in Adolescent and Adult Female Mouse Brains” (Frontiers in Molecular Neuroscience, 2018).

Tested on: CD1 female mouse brain lipidome
Assay: Brain-region lipid levels (HPLC/MS/MS lipidomics) 2 h after single i.p. 3 mg/kg CP 55,940 vs vehicle
Type: in vivo
Design: N-arachidonoyl phenylalanine level, Mean / N-stearoyl tryptophan level, Mean / N-stearoyl proline level, Mean / N-stearoyl leucine level, Mean / N-stearoyl phenylalanine level, Mean / N-stearoyl serine level, Mean / N-stearoyl methionine level, Mean: unit: moles per gram
Conditions: cerebellum
Procedure: The Bloomington Institutional Animal Care and Use Committee of Indiana University reviewed and approved the animal procedures. Female mice from the CD1 strain were utilized to match our study examining THC’s effects on the brain lipidome ([Leishman et al., 2018]). Mice were given a single i.p. injection of either 3 mg/kg CP or 1:1:18 cremophor:ethanol:saline vehicle (please refer to the section “3 mg/kg CP Is Relevant for Synthetic Cannabinoid Abuse and Has Stronger Effects on the Female Mouse Brain Lipidome During Adolescence” for a justification of dose and use of female mice). Three different age groups were given injections: PND 35 and PND 50 adolescents, and adult mice (PND 113). At least eight mice in each age group received CP and at least eight received vehicle. Matching the THC study time course ([Leishman et al., 2018]), mice were sacrificed via rapid decapitation 2 h after injection. Brains were immediately removed and flash-frozen in liquid nitrogen, and then stored at -80°C until dissections were performed. Brains were dissected on an ice-cold dissection plate into the following regions: STR, HIPP, CER, THAL, CTX, HYP, MID, and STEM. These abbreviations for these brain areas will be used exclusively when discussing the results generated by these specific dissections. Each dissected area was immediately placed in liquid nitrogen and then stored at -80°C until used for lipid extraction.
Tissue extracts were performed as previously described ([Bradshaw et al., 2006]; [Stuart et al., 2013]; [Raboune et al., 2014]; [Leishman et al., 2016a],[b], [2017], [2018]). First, samples were shock frozen in liquid nitrogen, weighed, and transferred to a centrifuge tube. The mass of the largest sample was multiplied by 50 to determine how many milliliters of HPLC-grade methanol (Fisher, Fair Lawn, NJ, United States) to add. Then, samples were spiked with 500 pmol deuterium-labeled NAGly (d8NAGly; Cayman Chemical, Ann Arbor, MI, United States). Samples were placed on ice in darkness for 2 h then individually homogenized and centrifuged at 19,000 × g for 20 min at 20°C. Supernatants were diluted with HPLC water (purified in house) to make a solution of 75% water, 25% supernatant. Lipids were partially purified on C18 solid phase extraction columns (Agilent, Palo Alto, CA, United States). A series of four elutions with 1.5 mL of 60%, 75%, 85%, and 100% methanol were collected ([Stuart et al., 2013]; [Leishman et al., 2016a],[b], [2018]).
As previously described ([Bradshaw et al., 2006]; [Tan et al., 2006]; [Smoum et al., 2010]; [Stuart et al., 2013]; [Tortoriello et al., 2013]; [Raboune et al., 2014]; [Leishman et al., 2016a],[b], [2017], [2018]), samples were analyzed using an Applied Biosystems API 3000 triple quadrupole mass spectrometer with electrospray ionization (Foster City, CA, United States). Using an Agilent XDB-C18 reversed phase analytical column and optimized mobile phase gradients, 20 μL from each elution were chromatographed. Two Shimadzu 10ADvp pumps (Columbia, MD, United States) provided the pressure for gradient elution. Mobile phase A: 20% methanol, 80% water (v/v) and 1 mM ammonium acetate (Sigma, St. Louis, MO, United States). Mobile phase B: 100% methanol, 1 mM ammonium acetate. Every method run began with 0% mobile phase B, reached 100% mobile phase B flowing at 0.2 mL/min, and gradually returned to 0% mobile phase B.
This screening library will be referred to as the lipidome when discussing data from this study. HPLC/MS/MS data were analyzed using Analyst software (Applied Biosystems) ([Bradshaw et al., 2006]; [Tan et al., 2006]; [Stuart et al., 2013]; [Tortoriello et al., 2013]; [Raboune et al., 2014]; [Leishman et al., 2016a],[b], [2017], [2018]). Chromatograms (Supplementary Figure 3) were generated by determining the retention time of analytes from the analytical column with a [M-1] or [M+1] parent peak and a fragmentation peak corresponding to the programmed values. […]

[1] = PND 50 female mice, 3 mg/kg CP 55,940
[2] = WT adult female mice, 3mg/kg CP 55,940

## CCCCCCC(C)(C)c1ccc([C@@H]2C[C@H](O)CC[C@H]2CCCO)c(O)c1 [CP 55,940]
[1]
  N-arachidonoyl phenylalanine level, Mean: 2.55E-13
  N-arachidonoyl proline level, Mean: BDL
  N-arachidonoyl serine level, Mean: 4.25E-12
  N-arachidonoyl taurine level, Mean: 1.97E-11
  N-arachidonoyl tryptophan level, Mean: BDL
  N-arachidonoyl tyrosine level, Mean: 2.66E-13
  N-docosahexaenoyl GABA level, Mean: 9.21E-13
  N-docosahexaenoyl ethanolamine level, Mean: 3.09E-11
  N-docosahexaenoyl glycine level, Mean: 4.01E-13
  N-docosahexaenoyl leucine level, Mean: 2.06E-13
  N-docosahexaenoyl phenylalanine level, Mean: 2.68E-13
  N-docosahexaenoyl proline level, Mean: BDL
  N-docosahexaenoyl serine level, Mean: 8.95E-12
  N-docosahexaenoyl tryptophan level, Mean: BDL
  N-docosahexaenoyl tyrosine level, Mean: 6.76E-13
  N-linoleoyl GABA level, Mean: 6.58E-13
  N-linoleoyl alanine level, Mean: 7.79E-14
  N-linoleoyl ethanolamine level, Mean: 3.74E-11
  N-linoleoyl glycine level, Mean: 1.39E-13
  N-linoleoyl leucine level, Mean: 5.12E-14
  N-linoleoyl proline level, Mean: BDL
  N-linoleoyl serine level, Mean: 5.53E-11
  N-linoleoyl tryptophan level, Mean: BDL
  N-linoleoyl tyrosine level, Mean: BDL
  N-nervonoyl valine level, Mean: BDL
  N-oleoyl GABA level, Mean: 2.42E-12
  N-oleoyl alanine level, Mean: 9.8E-13
  N-oleoyl dopamine level, Mean: BDL
  N-oleoyl ethanolamine level, Mean: 6.07E-11
  N-oleoyl glycine level, Mean: 1.13E-12
  N-oleoyl leucine level, Mean: 5.63E-13
  N-oleoyl methionine level, Mean: 2.55E-13
  N-oleoyl phenylalanine level, Mean: 1.01E-12
  N-oleoyl proline level, Mean: BDL
  N-oleoyl serine level, Mean: 1.05E-10
  N-oleoyl tryptophan level, Mean: BDL
  N-oleoyl tyrosine level, Mean: 3.12E-13
  N-oleoyl valine level, Mean: 4.78E-14
  N-palmitoyl GABA level, Mean: 5.13E-12
  N-palmitoyl alanine level, Mean: 2.64E-12
  N-palmitoyl ethanolamine level, Mean: 5.07E-11
  N-palmitoyl glycine level, Mean: 3.72E-12
  N-palmitoyl leucine level, Mean: 1.13E-12
  N-palmitoyl methionine level, Mean: 9.79E-13
  N-palmitoyl phenylalanine level, Mean: 1.27E-12
  N-palmitoyl proline level, Mean: BDL
  N-palmitoyl serine level, Mean: 1.43E-11
  N-palmitoyl tryptophan level, Mean: BDL
  N-palmitoyl tyrosine level, Mean: 6.09E-13
  N-palmitoyl valine level, Mean: 1.77E-13
  N-stearoyl GABA level, Mean: 5.74E-12
  N-stearoyl alanine level, Mean: 1.16E-12
  N-stearoyl ethanolamine level, Mean: 2.6E-11
  N-stearoyl glycine level, Mean: 5.05E-13
  N-stearoyl leucine level, Mean: 8.15E-13
  N-stearoyl methionine level, Mean: 4.91E-13
  N-stearoyl phenylalanine level, Mean: 1.17E-12
  N-stearoyl proline level, Mean: BDL
  N-stearoyl serine level, Mean: 3.32E-11
  N-stearoyl tryptophan level, Mean: BDL
  N-stearoyl tyrosine level, Mean: 1.08E-13
  Oleic acid level, Mean: 2.36E-10
  PGE2 level, Mean: 5.14E-11
  THC level, Mean: BDL
[2]
  2-arachidonoyl glycerol level, Mean: 4.32E-09
  2-linoleoyl glycerol level, Mean: 2.44E-10
  2-oleoyl glycerol level, Mean: 1.94E-09
  2-palmitoyl glycerol level, Mean: 1.01E-10
  6-ketoPGF1α level, Mean: 2.25E-11
  Arachidonic acid level, Mean: 7.51E-10
  Linoleic acid level, Mean: 6.75E-10
  N-arachidonoyl GABA level, Mean: 1.22E-11
  N-arachidonoyl ethanolamine level, Mean: 1.33E-11
  N-arachidonoyl glycine level, Mean: 1.43E-13
  N-arachidonoyl phenylalanine level, Mean: 4.52E-14
  N-arachidonoyl taurine level, Mean: 6.54E-11
  N-docosahexaenoyl GABA level, Mean: 8.3E-12
  N-docosahexaenoyl ethanolamine level, Mean: 2.78E-11
  N-docosahexaenoyl glycine level, Mean: 7.91E-14
  N-docosahexaenoyl leucine level, Mean: 1.51E-12
  N-docosahexaenoyl phenylalanine level, Mean: 3.04E-14
  N-linoleoyl GABA level, Mean: 7.7E-12
  N-linoleoyl alanine level, Mean: 2.18E-13
  N-linoleoyl ethanolamine level, Mean: 1.87E-11
  N-linoleoyl glycine level, Mean: 6.99E-14
  N-linoleoyl serine level, Mean: 1.99E-11
  N-oleoyl GABA level, Mean: 1.65E-11
  N-oleoyl alanine level, Mean: 2.34E-12
  N-oleoyl ethanolamine level, Mean: 2.04E-10
  N-oleoyl glycine level, Mean: 2.49E-13
  N-oleoyl leucine level, Mean: 1.06E-12
  N-oleoyl phenylalanine level, Mean: 6.03E-13
  N-oleoyl serine level, Mean: 1.05E-10
  N-oleoyl tyrosine level, Mean: 8.96E-13
  N-oleoyl valine level, Mean: 2.42E-14
  N-palmitoyl GABA level, Mean: 2.25E-11
  N-palmitoyl alanine level, Mean: 1.61E-12
  N-palmitoyl ethanolamine level, Mean: 6.47E-11
  N-palmitoyl glycine level, Mean: 1.24E-12
  N-palmitoyl leucine level, Mean: 1.34E-12
  N-palmitoyl methionine level, Mean: 6.89E-12
  N-palmitoyl phenylalanine level, Mean: 1.87E-13
